51 compounds from the supplement of paper PMC9938120 can be followed below.

The assay has as its system FMOC25_1 (patient-derived low-grade serous ovarian cancer cells). The assay is described as follows: drug sensitivity score (DSS3, normalised partial AUC of % inhibition dose-response) (DSS (score)); higher = more sensitive (stronger inhibition of viability); extreme values may be limits of the assay. The following applies: 72 h; library: FO4B; assay format: 2D, 384-well, CellTiter-Glo. The method in brief: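 Cells were dispensed onto 384-well flat clear-bottom plates already holding compounds at five concentrations over a 10,000-fold range, using patient-derived ovarian cancer cells at passage under 10. Incubation lasted 72 h at 37 °C in 5% CO2, after which CellTiter-Glo viability data were processed in Breeze. Higher drug sensitivity scores, each a partial area under the percent-inhibition dose-response curve divided by the log of the upper asymptote, mean more sensitive cells.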
On the technique in general: ATP-based viability assays read luminescence as a measure of living cells.

Each structure is given as a SMILES string.

Compound `CCc1c2c(nc3ccc(OC(=O)N4CCC(N5CCCCC5)CC4)cc13)-c1cc3c(c(=O)n1C2)COC(=O)[C@]3(O)CC` [Irinotecan] yielded a drug sensitivity score of 5.1.
`CCCNC(=O)Nc1ccc(Oc2ncnc3cc(OC)c(OC)cc23)cc1Cl` [KRN-633] yielded a drug sensitivity score of 0.
Compound `O=C(c1ccc(/C=C/c2n[nH]c3ccccc23)cc1)N1CCNCC1` [KW-2449] showed a drug sensitivity score of 0.
`O=C(Cc1ccc(-c2ccc(OCCN3CCOCC3)cc2)cn1)NCc1ccccc1` [KX2-391] yielded a drug sensitivity score of 12.7.
`CN[C@@H](C)C(=O)N[C@H](C(=O)N1CCC[C@H]1c1nc(C(=O)c2ccc(F)cc2)cs1)C1CCCCC1` [LCL161] yielded a drug sensitivity score of 7.7.
`C[C@]12O[C@H](C[C@]1(O)CO)n1c3ccccc3c3c4c(c5c6ccccc6n2c5c31)CNC4=O` [Lestaurtinib] gave a drug sensitivity score of 5.3.
As for `c1ccc([C@H]2CN3CCSC3=N2)cc1` [Levamisole], the figure is 0.
As for `O=NN(CCCl)C(=O)NC1CCCCC1` [Lomustine], the figure is 0.
`C=CCn1c(=O)c2cnc(Nc3ccc(N4CCN(C)CC4)cc3)nc2n1-c1cccc(C(C)(C)O)n1` [MK1775] registered a drug sensitivity score of 11.5.
`CN(C[C@@H]1COCCO1)S(=O)(=O)Nc1ccc2ccc3ncc(-c4cnn(C)c4)cc3c(=O)c2c1` [MK-2461] displayed a drug sensitivity score of 2.8.
The compound `CC(C)n1nc(-c2ccc3oc(N)nc3c2)c2c(N)ncnc21` [MLN-0128] returned a drug sensitivity score of 21.
In turn, `O=C(O)c1ccc(Nc2ncc3c(n2)-c2ccc(Cl)cc2C(c2c(F)cccc2F)=NC3)cc1` [MLN-8054] registered a drug sensitivity score of 0.
As for `N[C@@H](Cc1ccc(N(CCCl)CCCl)cc1)C(=O)O` [Melphalan], the figure is 0; as for `CCN1CCN(Cc2ccc(-c3cc4c(N[C@H](C)c5ccccc5)ncnc4[nH]3)cc2)CC1` [NVP-AEE788], 6; as for `CCN1CCN(c2ccc(Nc3cc(N(C)C(=O)Nc4c(Cl)c(OC)cc(OC)c4Cl)ncn3)cc2)CC1` [NVP-BGJ398], 0.
For the compound `CNC(=O)c1ccc(-c2cnc3ncc(Cc4ccc5ncccc5c4)n3n2)cc1F` [NVP-INC280], the drug sensitivity score came out at 0.
`COc1ccc(C2=N[C@@H](c3ccc(Cl)cc3)[C@@H](c3ccc(Cl)cc3)N2C(=O)N2CCNC(=O)C2)c(OC(C)C)c1` [Nutlin-3] registered a drug sensitivity score of 3.5.
Compound `COc1cccc2cc(-c3nc([C@H]4CC[C@H](C(=O)O)CC4)n4ncnc(N)c34)[nH]c12` [OSI-027] returned a drug sensitivity score of 8.2.
`O=C(Nc1ccc(OC(F)(F)F)cc1)c1sccc1NCc1ccnc2ccccc12` [OSI-930] had a drug sensitivity score of 0.
As to `CC(=O)c1cnc2ccc(-c3cc(Cl)c(O)c(Cl)c3)nc2c1N[C@H]1CC[C@H](CN(C)C)CC1` [OTSSP167], the drug sensitivity score turned out to be 7.7.
`Cc1sc2c(c1C)C(c1ccc(Cl)cc1)=N[C@@H](CC(=O)Nc1ccc(O)cc1)c1nnc(C)n1-2` [OTX015] returned a drug sensitivity score of 6.3.
`COC1=CC(c2cc3ccccc3[nH]2)=N/C1=C\c1[nH]c(C)cc1C` [Obatoclax] gave a drug sensitivity score of 1.8.
With `Cc1[nH]c(/C=C2\C(=O)Nc3ccccc32)c(C)c1CCC(=O)O` [Orantinib], the drug sensitivity score was 2.6.
`CCn1nnc2c(N3CCOCC3)nc(-c3ccc(NC(=O)Nc4ccc(C(=O)N5CCN(C)CC5)cc4)cc3)nc21` [PKI-402] showed a drug sensitivity score of 19.1.
Take `C/C(=C\c1csc(C)n1)[C@@H]1C[C@@H]2O[C@]2(C)CCC[C@H](C)[C@H](O)[C@@H](C)C(=O)C(C)(C)[C@@H](O)CC(=O)O1` [Patupilone]: the drug sensitivity score was found to be 9.3.
For `CCOc1cc2ncc(C#N)c(Nc3ccc(F)c(Cl)c3)c2cc1NC(=O)/C=C/CN(C)C` [Pelitinib], the drug sensitivity score stood at 13.1.
Compound `COc1ccc(Cl)c(Nc2nc3ccccc3nc2NS(=O)(=O)c2cccc(NC(=O)C(C)(C)N)c2)c1` [Pilaralisib] registered a drug sensitivity score of 2.2.
The compound `O=C(NC[C@H](O)CO)c1ccncc1Nc1ccc(I)cc1F` [Pimasertib] yielded a drug sensitivity score of 14.7.
Consider `O=C(CCBr)N1CCN(C(=O)CCBr)CC1` [Pipobroman], for which the drug sensitivity score turned out to be 1.6.
`C[C@]12C=CC(=O)C=C1CC[C@@H]1[C@@H]2C(=O)C[C@@]2(C)[C@H]1CC[C@]2(O)C(=O)CO` [Prednisone] came in with a drug sensitivity score of 0.
Regarding `CNNCc1ccc(C(=O)NC(C)C)cc1` [Procarbazine], the drug sensitivity score was 0.
As for `Cc1cc(-c2ncc(-c3cccnc3)cc2/C=C/c2ccccc2)cnc1-c1cccnc1` [Pyridoclax], the figure is 5.5.
Compound `Cn1c(Nc2ccc(C(F)(F)F)cc2)nc2cc(Oc3ccnc(-c4ncc(C(F)(F)F)[nH]4)c3)ccc21` [RAF265] returned a drug sensitivity score of 8.1.
As for `CNC(=O)c1ccc(N2C(=S)N(c3ccc(C#N)c(C(F)(F)F)c3)C(=O)C23CCC3)cc1F` [RD162], the figure is 0; as for `CCNC(=O)Nc1ccc(-c2nc3c(c(N4CCOC[C@@H]4C)n2)CCN(C2COC2)C3)cc1` [RG-7603], 7.8.
In turn, `C[C@@H]1C[C@H]2O[C@@H]2/C=C\C=C\C(=O)Cc2c(Cl)c(O)cc(O)c2C(=O)O1` [Radicicol] came in with a drug sensitivity score of 3.2.
The compound `CNC(=O)c1cc(Oc2ccc(NC(=O)Nc3cc(C(C)(C)C)nn3-c3ccc4ncccc4c3)c(F)c2)ccn1` [Rebastinib] displayed a drug sensitivity score of 0.
For `COc1cc(F)c(F)c(Nc2ccc(I)cc2F)c1NS(=O)(=O)C1(C[C@H](O)CO)CC1` [Refametinib], the drug sensitivity score stood at 14.8.
`CS(=O)(=O)c1ccc(C2=C(c3ccccc3)C(=O)OC2)cc1` [Rofecoxib] showed a drug sensitivity score of 0.
As for `Cn1cc(-c2ccc3nnc(Sc4ccc5ncccc5c4)n3n2)cn1` [SGX-523], the figure is 0; as for `CC(C)NC(=O)COc1cccc(-c2nc(Nc3ccc4[nH]ncc4c3)c3ccccc3n2)c1` [SLx-2119], 2.7; as for `O=C(Nc1cccc(Cl)c1)Nc1ncc(CCNc2ncnc3ccsc23)s1` [SNS-314], 0.4.
As for `Cc1cc(C)c(/C=C2\C(=O)Nc3ccccc32)[nH]1` [Semaxanib], the figure is 4.4.
`c1ccc2c(CCNc3ccc(Nc4ccncc4)cc3)c[nH]c2c1` [Serdemetan] registered a drug sensitivity score of 3.4.
Turning to `O=[N+]([O-])c1ccc2c(c1)S(=O)(=O)C=C2` [Stattic], the drug sensitivity score was found to be 6.3.
Compound `CN(N=O)C(=O)N[C@@H](C=O)[C@@H](O)[C@H](O)[C@H](O)CO` [Streptozocin] yielded a drug sensitivity score of 0.
As for `N#Cc1c(Oc2ccc(F)c(NC(=O)Cc3cccc(C(F)(F)F)c3)c2)ccc2nc(NC(=O)C3CC3)sc12` [TAK-632], the figure is 4.4; as for `CCc1nc(-c2cccc(C)c2)c(-c2ccnc(NC(=O)c3ccccc3)c2)s1` [TAK-715], 0; as for `Cn1c(=O)c(F)c(Nc2ccc(I)cc2F)c2c(=O)n(C[C@@H](O)CO)cnc21` [TAK-733], 13.2.
The compound `COc1cc(C(=O)NC2CCN(C)CC2)c(F)cc1Nc1ncc2c(n1)N(C1CCCC1)CC(F)(F)C(=O)N2C` [TAK-960] displayed a drug sensitivity score of 0.
As for `NC(=O)Nc1sc(-c2ccc(F)cc2)cc1C(N)=O` [TPCA-1], the figure is 2.9.
